From US20110136666A1, “CHEMICAL COMPOUNDS” (SYNGENTA CROP PROTECTION, INC., priority 2008, published 2011)

Tests used:
Assay type in all cases: in vivo
[1] = tested on: Alopecurus myosuroides (ALOMY); assay: Pre-emergence biological efficacy, glasshouse pot test; details: 312 h, after 13 days, 100=total damage, 0=no damage, read-out: Percentage damage caused to weed species ALOMY
Experimental: (§1) Seeds of Alopecurus myosuroides (ALOMY), Setaria faberi (SETFA), Echinochloa crus-galli (ECHCG), Solanum nigrum (SOLNI), Amaranthus retroflexus (AMARE) and Ipomea hederaceae (IPOHE) were sown in standard soil in pots. After cultivation for one day under controlled conditions in a glasshouse (at 24/16° C., day/night; 14 hours light; 65% humidity), the plants were sprayed with an aqueous spray solution derived from the formulation of the technical active ingredient in acetone/water (50:50) solution containing 0.5% Tween 20 (polyoxyethylene sorbitan monolaurate, CAS RN 9005-64-5) to give a final dose of 250 or 1000 g/ha of test compound.
(§2) The test plants were then grown under controlled conditions in the glasshouse (at 24/16° C., day/night; 14 hours light; 65% humidity) and watered twice daily. After 13 days the test was evaluated (100=total damage to plant; 0=no damage to plant).

[2] = tested on: Amaranthus retroflexus (AMARE); assay: as above; details: 312 h, after 13 days, 100=total damage, 0=no damage, read-out: Percentage damage caused to weed species AMARE
Experimental: as §1, §2

[3] = tested on: Echinochloa crus-galli (ECHCG); assay: as above; details: 312 h, after 13 days, 100=total damage, 0=no damage, read-out: Percentage damage caused to weed species ECHCG
Experimental: as §1, §2

[4] = tested on: Ipomea hederaceae (IPOHE); assay: as above; details: Ipomoea hederacea, 312 h, after 13 days, 100=total damage, 0=no damage, read-out: Percentage damage caused to weed species IPOHE
Experimental: as §1, §2

Setaria faberi (SETFA) [5] = assay: as above; details: 312 h, after 13 days, 100=total damage, 0=no damage, read-out: Percentage damage caused to weed species SETFA
Experimental: as §1, §2

Solanum nigrum (SOLNI) [6] = assay: as above; details: 312 h, after 13 days, 100=total damage, 0=no damage, read-out: Percentage damage caused to weed species SOLNI
Experimental: as §1, §2

[7] = tested on: Alopecurus myosuroides (ALOMY); assay: Post-emergence biological efficacy, glasshouse pot test; details: 312 h, after 13 days, 100=total damage, 0=no damage, read-out: Percentage damage caused to weed species ALOMY
Experimental: as §1, with “8 days” for “one day”
(§3) The test plants were then grown on under controlled conditions in a glasshouse (at 24/16° C., day/night; 14 hours light; 65% humidity) and watered twice daily. After 13 days the test was evaluated (100=total damage to plant; 0=no damage to plant).

[8] = tested on: Amaranthus retroflexus (AMARE); assay: as above; details: 312 h, after 13 days, 100=total damage, 0=no damage, read-out: Percentage damage caused to weed species AMARE
Experimental: as §1, with “8 days” for “one day”
as §3

[9] = tested on: Echinochloa crus-galli (ECHCG); assay: as above; details: 312 h, after 13 days, 100=total damage, 0=no damage, read-out: Percentage damage caused to weed species ECHCG
Experimental: as §1, with “8 days” for “one day”
as §3

[10] = tested on: Ipomea hederaceae (IPOHE); assay: as above; details: Ipomoea hederacea, 312 h, after 13 days, 100=total damage, 0=no damage, read-out: Percentage damage caused to weed species IPONE
Experimental: as §1, with “8 days” for “one day”
as §3

Setaria faberi (SETFA) [11] = assay: as above; details: 312 h, after 13 days, 100=total damage, 0=no damage, read-out: Percentage damage caused to weed species SETFA
Experimental: as §1, with “8 days” for “one day”
as §3

Solanum nigrum (SOLNI) [12] = assay: as above; details: 312 h, after 13 days, 100=total damage, 0=no damage, read-out: Percentage damage caused to weed species SOLNI
Experimental: as §1, with “8 days” for “one day”
as §3

| Structure (SMILES) | pest or weed control at 1000 g/ha [1] | pest or weed control at 1000 g/ha [2] | pest or weed control at 1000 g/ha [3] | pest or weed control at 1000 g/ha [4] | pest or weed control at 1000 g/ha (Setaria faberi (SETFA) [5]) | pest or weed control at 1000 g/ha (Solanum nigrum (SOLNI) [6]) | pest or weed control at 1000 g/ha [7] | pest or weed control at 1000 g/ha [8] | pest or weed control at 1000 g/ha [9] | pest or weed control at 1000 g/ha [10] | pest or weed control at 1000 g/ha (Setaria faberi (SETFA) [11]) | pest or weed control at 1000 g/ha (Solanum nigrum (SOLNI) [12]) | pest or weed control at 250 g/ha [1] | pest or weed control at 250 g/ha [2] | pest or weed control at 250 g/ha [3] | pest or weed control at 250 g/ha [4] | pest or weed control at 250 g/ha (Setaria faberi (SETFA) [5]) | pest or weed control at 250 g/ha (Solanum nigrum (SOLNI) [6]) | pest or weed control at 250 g/ha [7] | pest or weed control at 250 g/ha [8] | other results |
| --- | --- | --- | --- | --- | --- | --- | --- | --- | --- | --- | --- | --- | --- | --- | --- | --- | --- | --- | --- | --- | --- |
| COC(=O)c1nc(-c2cccs2)nc(N)c1Cl [Compound 2-1, 4-Amino-5-chloro-6-methoxycarbonyl-2-thiophen-2-ylpyrimidine] | 0% | 0% | 0% | 0% | 0% | 0% | 0% | 0% | 0% | 50% | 0% | 0% | – | – | – | – | – | – | – | – | – |
| COC(=O)c1nc(-c2cnc(OC)nc2)nc(N)c1Cl [Compound 2-182, 4-Amino-5-chloro-6-methoxycarbonyl-2-(2-methoxypyrimidin-5-yl)-pyrimidine] | 0% | 0% | 0% | 0% | 0% | 40% | 0% | 20% | 0% | 30% | 10% | 70% | – | – | – | – | – | – | – | – | – |
| COC(=O)c1nc(-c2ccc(Cl)nc2)nc(N)c1Cl [Compound 2-156, 4-Amino-5-chloro-2-(2-chloropyridin-5-yl)-6-methoxycarbonyl pyrimidine] | 0% | 70% | 0% | 0% | 0% | 60% | 40% | 100% | 30% | 70% | 40% | 80% | – | – | – | – | – | – | – | – | – |
| COC(=O)c1nc(-c2cscc2C)nc(N)c1Cl [Compound 2-17, 4-Amino-5-chloro-6-methoxycarbonyl-2-(4-methylthiophen-3-yl)-pyrimidine] | – | – | – | – | – | – | – | – | – | – | – | – | 0% | 50% | 0% | 0% | 0% | 0% | 0% | 0% | pest or weed control at 250 g/ha [9]: 0%; pest or weed control at 250 g/ha [10]: 0%; pest or weed control at 250 g/ha (Setaria faberi (SETFA) [11]): 0%; pest or weed control at 250 g/ha (Solanum nigrum (SOLNI) [12]): 0% |
| COC(=O)c1nc(-c2ccc(OC)nc2OC)nc(N)c1Cl [Compound 2-159, 4-Amino-5-chloro-2-(2,6-dimethoxypyridin-3-yl)-6-methoxycarbonyl pyrimidine] | 0% | 0% | 0% | 0% | 0% | 0% | 0% | 100% | 10% | 10% | 30% | 50% | – | – | – | – | – | – | – | – | – |
| COC(=O)c1nc(-c2ccc(F)nc2)nc(N)c1Cl [Compound 2-157, 4-Amino-5-chloro-2-(2-fluoropyridin-5-yl)-6-methoxycarbonyl pyrimidine] | 0% | 0% | 0% | 0% | 0% | 0% | 30% | 60% | 0% | 70% | 20% | 60% | – | – | – | – | – | – | – | – | – |
| COC(=O)c1nc(-c2c(C)n[nH]c2C)nc(N)c1Cl [Compound 2-72, 4-Amino-5-chloro-2-(3,5-dimethylpyrazol-4-yl)-6-methoxycarbonyl pyrimidine] | – | – | – | – | – | – | – | – | – | – | – | – | 0% | 0% | 0% | 0% | 0% | 0% | 0% | 0% | pest or weed control at 250 g/ha [9]: 0%; pest or weed control at 250 g/ha [10]: 0%; pest or weed control at 250 g/ha (Setaria faberi (SETFA) [11]): 0%; pest or weed control at 250 g/ha (Solanum nigrum (SOLNI) [12]): 0% |
| COC(=O)c1nc(-c2ccc(C#N)s2)nc(N)c1Cl [Compound 2-3, 4-Amino-5-chloro-2-(5-cyanothiophen-2-yl)-6-methoxycarbonyl pyrimidine] | 0% | 0% | 0% | 0% | 0% | 0% | 0% | 0% | 0% | 0% | 0% | 0% | – | – | – | – | – | – | – | – | – |
| COC(=O)c1nc(-c2ncc3ccccn23)nc(N)c1Cl [Compound 2-146, 4-Amino-5-chloro-2-(imidazo[1,5-a]pyridin-3-yl)-6-methoxycarbonyl pyrimidine] | – | – | – | – | – | – | – | – | – | – | – | – | 0% | 0% | 0% | 0% | 0% | 0% | 0% | 30% | pest or weed control at 250 g/ha [9]: 0%; pest or weed control at 250 g/ha [10]: 40%; pest or weed control at 250 g/ha (Setaria faberi (SETFA) [11]): 0%; pest or weed control at 250 g/ha (Solanum nigrum (SOLNI) [12]): 30% |
| COC(=O)c1nc(-c2cccnc2)nc(N)c1Cl [Compound 2-153, 4-Amino-5-chloro-6-methoxycarbonyl-2-pyridin-3-ylpyrimidine] | 0% | 0% | 0% | 0% | 0% | 0% | 0% | 0% | 0% | 0% | 0% | 0% | – | – | – | – | – | – | – | – | – |
